Test results from US9113629B2, “4-amino-6-(4-substituted-phenyl)-picolinates and 6-amino-2-(4-substituted-phenyl)-pyrimidine-4-carboxylates and their use as herbicides” (DOW AGROSCIENCES LLC, priority 2013, dated 2015).
Like-named read-outs stand apart in the source and are kept apart here.

Tests used:
[1] = Post-emergent Test III, herbicidal activity in wheat and barley; assay type: in vivo, Lolium multiflorum, Lolium rigidum; settings: Lolium multiflorum, post-emergence, 504 h, read-out: Visual Growth Reduction (%) 21 Days After Application LOLSS; for pest or weed control at 35 g/ha: 35 g ai/ha; for pest or weed control at 70 g/ha: 70 g ai/ha; for pest or weed control at 140 g/ha: 140 g ai/ha
In short: (§1)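 GR20, GR50, GR80 and GR90 come from probit analysis of visual injury scores (0 = none, 100 = complete kill) taken 21 d after treatment. Foliar application was by track sprayer delivering 187 L/ha at five rates, from high down to 1/16×, onto greenhouse plants at the 2–3 leaf stage, with solvent-blank controls.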

[2] = tested on: APESV: bentgrass (Apera spica-venti); experiment: as above; assay type: in vivo; settings: for pest or weed control at 35 g/ha / pest or weed control at 70 g/ha / pest or weed control at 140 g/ha: Apera spica-venti, post-emergence, 504 h, read-out: Visual Growth Reduction (%) 21 Days After Application APESV; for pest or weed control at 35 g/ha: 35 g ai/ha; for pest or weed control at 70 g/ha: 70 g ai/ha; for GR50 APESV / GR80 APESV: probit analysis; for pest or weed control at 140 g/ha: 140 g ai/ha
In short: as §1

[3] = tested on: HORSS: barley, including spring and winter (Hordeum vulgare); experiment: as above; assay type: in vivo; settings: Table 9, 21 d; for pest or weed control at 35 g/ha / pest or weed control at 70 g/ha / pest or weed control at 140 g/ha: Hordeum vulgare, post-emergence, 504 h, post-emergent, read-out: Visual Growth Reduction (%) 21 Days After Application HORSS; for pest or weed control at 35 g/ha: 35 g ai/ha; for pest or weed control at 70 g/ha: 70 g ai/ha; for GR20 HORSS: dose for 20 percent growth reduction, probit analysis; for pest or weed control at 140 g/ha: 140 g ai/ha
In short: as §1

[4] = tested on: KCHSC: kochia (Kochia scoparia); experiment: as above; assay type: in vivo; settings: for pest or weed control at 35 g/ha / pest or weed control at 70 g/ha / pest or weed control at 140 g/ha: Bassia scoparia, post-emergence, 504 h, read-out: Visual Growth Reduction (%) 21 Days After Application KCHSC; for pest or weed control at 35 g/ha: 35 g ai/ha; for pest or weed control at 70 g/ha: 70 g ai/ha; for GR50 KCHSC / GR80 KCHSC: probit analysis; for pest or weed control at 140 g/ha: 140 g ai/ha
In short: as §1

[5] = tested on: LOLSS: ryegrass including, Italian ryegrass (Lolium multiflorum), rigid ryegrass (Lolium rigidum), annual ryegrass (Lolium multiflorum subsp. Gaudini); experiment: as above; assay type: in vivo; settings: probit analysis
In short: as §1

[6] = tested on: TRZSS: wheat, including spring and winter (Triticum aestivum); experiment: as above; assay type: in vivo; settings: Table 9, 21 d; for GR20 TRZSS: dose for 20 percent growth reduction, probit analysis; for pest or weed control at 35 g/ha / pest or weed control at 70 g/ha / pest or weed control at 140 g/ha: Triticum aestivum, post-emergence, 504 h, post-emergent, read-out: Visual Growth Reduction (%) 21 Days After Application TRZSS; for pest or weed control at 35 g/ha: 35 g ai/ha; for pest or weed control at 70 g/ha: 70 g ai/ha; for pest or weed control at 140 g/ha: 140 g ai/ha
In short: as §1

[7] = tested on: LAMSS; experiment: as above; assay type: in vivo
In short: as §1

[8] = tested on: MATSS: scented mayweed (Matricaria chamomilla), pineappleweed (Matricaria matricarioides); experiment: as above; assay type: in vivo
In short: as §1

[9] = Table 9, dose for 50 percent growth reduction, 21 d
[10] = Table 9, dose for 80 percent growth reduction, 21 d
[11] = dose for growth reduction of 50 percent, 21 days after application
[12] = dose for growth reduction of 80 percent, 21 days after application
[13] = probit analysis, dose for growth reduction of 50 percent, 21 days after application
[14] = probit analysis, dose for growth reduction of 80 percent, 21 days after application

COC(=O)c1nc(-c2ccc(Br)cc2F)nc(N)c1OC [Compound 35]
pest or weed control at 35 g/ha ([1]; Table 9, post-emergent, 21 d): 0 to 29% | pest or weed control at 70 g/ha ([1]; Table 9, post-emergent, 21 d): 30 to 44% | pest or weed control at 35 g/ha ([2]; Table 9, post-emergent, 21 d): 0 to 29% | pest or weed control at 70 g/ha ([2]; Table 9, post-emergent, 21 d): 30 to 44% | GR50 APESV [2, 9]: 113 g ai/ha | GR80 APESV [2, 10]: >140 g ai/ha | pest or weed control at 35 g/ha [3]: 60 to 74% | pest or weed control at 70 g/ha [3]: 60 to 74% | GR20 HORSS [3]: 8 g ai/ha | pest or weed control at 35 g/ha ([4]; Table 9, post-emergent, 21 d): 75 to 84% | pest or weed control at 70 g/ha ([4]; Table 9, post-emergent, 21 d): 85 to 94% | GR50 KCHSC [4, 9]: 8 g ai/ha | GR80 KCHSC [4, 10]: 37 g ai/ha | GR50 LOLSS [5, 9]: 126 g ai/ha | GR80 LOLSS [5, 10]: >140 g ai/ha | GR20 TRZSS [6]: 2 g ai/ha | pest or weed control at 35 g/ha [6]: 75 to 84% | pest or weed control at 70 g/ha [6]: 75 to 84%

COc1c(N)nc(-c2ccc(Br)cc2F)nc1C(=O)O [Compound 46]
pest or weed control at 35 g/ha ([1]; Table 9, post-emergent, 21 d): 0 to 29% | pest or weed control at 70 g/ha ([1]; Table 9, post-emergent, 21 d): 30 to 44% | pest or weed control at 140 g/ha ([1]; Table 9, post-emergent, 21 d): 45 to 59% | pest or weed control at 35 g/ha ([2]; Table 9, post-emergent, 21 d): 0 to 29% | pest or weed control at 70 g/ha ([2]; Table 9, post-emergent, 21 d): 0 to 29% | pest or weed control at 140 g/ha ([2]; Table 9, post-emergent, 21 d): 45 to 59% | GR50 APESV [2, 9]: >140 g ai/ha | GR80 APESV [2, 10]: >140 g ai/ha | pest or weed control at 35 g/ha [3]: 60 to 74% | pest or weed control at 70 g/ha [3]: 60 to 74% | pest or weed control at 140 g/ha [3]: 85 to 94% | GR20 HORSS [3]: 8 g ai/ha | pest or weed control at 35 g/ha ([4]; Table 9, post-emergent, 21 d): 75 to 84% | pest or weed control at 70 g/ha ([4]; Table 9, post-emergent, 21 d): 85 to 94% | pest or weed control at 140 g/ha ([4]; Table 9, post-emergent, 21 d): 85 to 94% | GR50 KCHSC [4, 9]: 10 g ai/ha | GR80 KCHSC [4, 10]: 45 g ai/ha | GR50 LOLSS [5, 9]: 118 g ai/ha | GR80 LOLSS [5, 10]: >140 g ai/ha | GR20 TRZSS [6]: 1 g ai/ha | pest or weed control at 35 g/ha [6]: 75 to 84% | pest or weed control at 70 g/ha [6]: 75 to 84% | pest or weed control at 140 g/ha [6]: 85 to 94%

C#Cc1ccc(-c2nc(N)c(OC)c(C(=O)O)n2)c(F)c1F [Compound 154]
pest or weed control at 35 g/ha ([1]; Table 9, post-emergent, 21 d): 0 to 29% | pest or weed control at 70 g/ha ([1]; Table 9, post-emergent, 21 d): 0 to 29% | pest or weed control at 140 g/ha ([1]; Table 9, post-emergent, 21 d): 0 to 29% | pest or weed control at 35 g/ha ([2]; Table 9, post-emergent, 21 d): 0 to 29% | pest or weed control at 70 g/ha ([2]; Table 9, post-emergent, 21 d): 0 to 29% | pest or weed control at 140 g/ha ([2]; Table 9, post-emergent, 21 d): 0 to 29% | GR50 APESV [2, 9]: >140 g ai/ha | GR80 APESV [2, 10]: >140 g ai/ha | pest or weed control at 35 g/ha [3]: 0 to 29% | pest or weed control at 70 g/ha [3]: 0 to 29% | pest or weed control at 140 g/ha [3]: 45 to 59% | GR20 HORSS [3]: 81 g ai/ha | pest or weed control at 35 g/ha ([4]; Table 9, post-emergent, 21 d): 0 to 29% | pest or weed control at 70 g/ha ([4]; Table 9, post-emergent, 21 d): 0 to 29% | pest or weed control at 140 g/ha ([4]; Table 9, post-emergent, 21 d): 0 to 29% | GR50 KCHSC [4, 9]: 57 g ai/ha | GR80 KCHSC [4, 10]: 93 g ai/ha | GR50 LOLSS [5, 9]: >140 g ai/ha | GR80 LOLSS [5, 10]: >140 g ai/ha | GR20 TRZSS [6]: 49 g ai/ha | pest or weed control at 35 g/ha [6]: 0 to 29% | pest or weed control at 70 g/ha [6]: 30 to 44% | pest or weed control at 140 g/ha [6]: 45 to 59%

Nc1cc(-c2ccc(Br)cc2)nc(C(=O)O)c1Cl [Compound 168]
pest or weed control at 35 g/ha ([1]; Table 9, post-emergent, 21 d): 0 to 29% | pest or weed control at 70 g/ha ([1]; Table 9, post-emergent, 21 d): 45 to 59% | pest or weed control at 35 g/ha ([2]; Table 9, post-emergent, 21 d): 75 to 84% | pest or weed control at 70 g/ha ([2]; Table 9, post-emergent, 21 d): 85 to 94% | GR50 APESV [2, 9]: 21 g ai/ha | GR80 APESV [2, 10]: 57 g ai/ha | pest or weed control at 35 g/ha [3]: 85 to 94% | pest or weed control at 70 g/ha [3]: 95 to 100% | GR20 HORSS [3]: 1 g ai/ha | pest or weed control at 35 g/ha ([4]; Table 9, post-emergent, 21 d): 95 to 100% | pest or weed control at 70 g/ha ([4]; Table 9, post-emergent, 21 d): 95 to 100% | GR50 KCHSC [4, 9]: 5 g ai/ha | GR80 KCHSC [4, 10]: 15 g ai/ha | GR50 LOLSS [5, 9]: 108 g ai/ha | GR80 LOLSS [5, 10]: >140 g ai/ha | GR20 TRZSS [6]: 1 g ai/ha | pest or weed control at 35 g/ha [6]: 85 to 94% | pest or weed control at 70 g/ha [6]: 95 to 100%

COC(=O)c1nc(-c2ccc(F)c(F)c2F)c(F)c(N)c1Cl [Compound 186]
pest or weed control at 35 g/ha [1]: 0 to 29% | pest or weed control at 70 g/ha [1]: 0 to 29% | pest or weed control at 140 g/ha [1]: 0 to 29% | pest or weed control at 35 g/ha [2]: 0 to 29% | pest or weed control at 70 g/ha [2]: 0 to 29% | pest or weed control at 140 g/ha [2]: 0 to 29% | GR50 APESV [2, 11]: >140 g ai/ha | GR80 APESV [2, 12]: >140 g ai/ha | pest or weed control at 35 g/ha [4]: 60 to 74% | pest or weed control at 70 g/ha [4]: 60 to 74% | pest or weed control at 140 g/ha [4]: 60 to 74% | GR50 KCHSC [4, 11]: 1 g ai/ha | GR80 KCHSC [4, 12]: >140 g ai/ha | pest or weed control at 35 g/ha ([7]; post-emergence, 504 h, 35 g ai/ha, read-out: Visual Growth Reduction (%) 21 Days After Application LAMSS): 75 to 84% | pest or weed control at 70 g/ha ([7]; post-emergence, 504 h, 70 g ai/ha, read-out: Visual Growth Reduction (%) 21 Days After Application LAMSS): 85 to 94% | pest or weed control at 140 g/ha ([7]; post-emergence, 504 h, 140 g ai/ha, read-out: Visual Growth Reduction (%) 21 Days After Application LAMSS): 85 to 94% | GR50 LAMSS [7, 13]: 1 g ai/ha | GR80 LAMSS [7, 14]: 25 g ai/ha | GR50 LOLSS [5, 11]: >140 g ai/ha | GR80 LOLSS [5, 12]: >140 g ai/ha | pest or weed control at 35 g/ha ([8]; Matricaria chamomilla, post-emergence, 504 h, 35 g ai/ha, read-out: Visual Growth Reduction (%) 21 Days After Application MATSS): 0 to 29% | pest or weed control at 70 g/ha ([8]; Matricaria chamomilla, post-emergence, 504 h, 70 g ai/ha, read-out: Visual Growth Reduction (%) 21 Days After Application MATSS): 0 to 29% | pest or weed control at 140 g/ha ([8]; Matricaria chamomilla, post-emergence, 504 h, 140 g ai/ha, read-out: Visual Growth Reduction (%) 21 Days After Application MATSS): 0 to 29% | GR50 MATSS [8, 13]: >140 g ai/ha | GR80 MATSS [8, 14]: >140 g ai/ha
